Calls of active or inactive are those of the source. The calls are words filed in the database; no cut-off is given here.
How the values were obtained:
[1] = biological target: T1, Retinol-binding protein 4 (Homo sapiens, UniProt P02753); assay: Displacement of [3H]-retinol from human recombinant RBP4 by scintillation proximity assay
[2] = biological target: T1, Retinol-binding protein 4; assay: Inhibition of human recombinant RBP4-transthyretin interaction by FRET analysis
[3] = Metabolic stability in rat liver microsomes assessed as compound remaining after 30 mins; format: ADME; conditions: read-out: Stability
[4] = Clearance in rat at 0.5 mg/kg, iv; format: ADME, organism-based; design: dose 0.5 mg/kg, route intravenous; conditions: in vivo
[5] = AUC in rat at 0.5 mg/kg, iv; format: ADME, organism-based; design: dose 0.5 mg/kg, route intravenous; conditions: plasma
[6] = Mean residence time in rat at 0.5 mg/kg, iv; format: ADME, organism-based; design: dose 0.5 mg/kg, route intravenous; conditions: in vivo
[7] = Volume of distribution at steady state in rat at 0.5 mg/kg, iv; format: ADME, organism-based; design: dose 0.5 mg/kg, route intravenous; conditions: in vivo, read-out: Vdss
[8] = Cmax in mouse at 30 mg/kg, po; format: ADME, organism-based; design: dose 30 mg/kg, route oral; conditions: in vivo
[9] = AUC in mouse at 30 mg/kg, po; format: ADME, organism-based; design: dose 30 mg/kg, route oral; conditions: plasma
[10] = Mean residence time in mouse at 30 mg/kg, po; format: ADME, organism-based; design: dose 30 mg/kg, route oral; conditions: in vivo
Mus musculus [11] = organism: Mus musculus; assay: Reduction in RBP4 level in chow-fed B6D2F1 mouse at 5 uM after 4 hrs; format: functional, organism-based
Mus musculus [12] = organism: Mus musculus; assay: Reduction in retinol level in chow-fed B6D2F1 mouse at 5 uM after 4 hrs; format: functional, organism-based
[13] = Cmax in mouse at 5 mg/kg, po; format: ADME, organism-based; design: dose 5 mg/kg, route oral; conditions: in vivo
[14] = AUC in mouse at 5 mg/kg, po; format: ADME, organism-based; design: dose 5 mg/kg, route oral; conditions: plasma
[15] = Mean residence time in mouse at 5 mg/kg, po; format: ADME, organism-based; design: dose 5 mg/kg, route oral; conditions: in vivo
Liver microsome [16] = assay: Drug metabolism in rat liver microsomes assessed as oxidation in pyridinyl piperazine region; format: ADME
Liver microsome [17] = assay: Drug metabolism in human liver microsomes assessed as oxidation in pyridinyl piperazine region; format: ADME
Mus musculus [18] = organism: Mus musculus; assay: Reduction in RBP4 level in chow-fed B6D2F1 mouse after 4 hrs; format: functional, organism-based
Mus musculus [19] = organism: Mus musculus; assay: Reduction in retinol level in chow-fed B6D2F1 mouse after 4 hrs; format: functional, organism-based
Liver microsome [20] = assay: Drug metabolism in rat liver microsomes assessed as hydrolysis into primary urea; format: ADME
Liver microsome [21] = assay: Drug metabolism in human liver microsomes assessed as hydrolysis primary urea; format: ADME

| Compound | IC50 [1] [nM] | IC50 [2] [nM] | other results |
| --- | --- | --- | --- |
| O=C(Cc1ccccc1C(F)(F)F)N1CCN(c2ncnc3sc4c(c23)CCC4)CC1 | 280 | 60 |  |
| CC1=C(/C=C/C(C)=C/C=C/C(C)=C/C(=O)Nc2ccc(O)cc2)C(C)(C)CCC1 [FENRETINIDE] |  |  | remaining at 0.5 h [3]: 67%; clearance [4]: 5 mL/min/kg; AUC [5]: 1660 ng·h/mL; MRT [6]: 10.5 h; Vd [7]: 3.2 L/kg; Cmax [8]: 65 ng/mL; AUC [9]: 1210 ng·h/mL; MRT [10]: 35 h; Activity (Mus musculus [11]): Active; Activity (Mus musculus [12]): Active |
| O=C(Cc1ccccc1C(F)(F)F)N1CCN(c2ncccc2C(F)(F)F)CC1 | 3610 | > 10000 |  |
| O=C(c1ccco1)N1CCC(c2ccccc2C(F)(F)F)CC1 | 120 | 52 |  |
| O=C(O)c1ccccc1NC(=O)N1CCC(c2ccccc2C(F)(F)F)CC1 |  |  | remaining at 0.5 h [3]: > 90%; clearance [4]: 0.0833 mL/min/kg; AUC [5]: 10700 ng·h/mL; MRT [6]: 9.7 h; Vd [7]: 0.045 L/kg; Cmax [13]: 2950 ng/mL; AUC [14]: 17200 ng·h/mL; MRT [15]: 5.4 h; Drug metabolism (Liver microsome [16]): metabolite_notdetected; Drug metabolism (Liver microsome [17]): metabolite_notdetected; Activity (Mus musculus [18]): Dose-dependent effect; EC50 (Mus musculus [18]; B6D2F1, 4 h): 980 nM; Activity (Mus musculus [19]): Dose-dependent effect; EC50 (Mus musculus [19]; B6D2F1, 4 h): 1100 nM |
| O=C(c1cn(Cc2ccccc2)cn1)N1CCN(c2ccccc2Cl)CC1 | 440 |  |  |
| FC(F)(F)c1ccnc(N2CCC(c3ccccc3C(F)(F)F)CC2)n1 | 270 | 28 |  |
| COc1ccc(Cl)cc1NC(=O)N1CCN(C)CC1 | > 30000 |  |  |
| COc1ccc(Cl)cc1NC(=O)N1CCN(c2ccccn2)CC1 | > 30000 | > 30000 |  |
| COc1ccc(Cl)cc1NC(=O)N1CCN(c2ncc(C(F)(F)F)cc2C(F)(F)F)CC1 | 2200 |  |  |
| COc1ccc(Cl)cc1NC(=O)N1CCN(c2ccccc2)CC1 | 30000 |  |  |
| COC(=O)c1ccccc1NC(=O)N1CCC(c2ccccc2C(F)(F)F)CC1 | 91 | 18 |  |
| Cn1cnc(C(=O)N2CCC(c3ccccc3C(F)(F)F)CC2)c1 | 110 | 17 |  |
| COc1ccc(Cl)cc1C(=O)N1CCN(c2ncnc3sc4c(c23)CCC4)C(C)C1 (stereo unspecified) | 830 | 1480 |  |
| COc1ccc(Cl)cc1NC(=O)N1CCN(Cc2c(Cl)cccc2Cl)CC1 | 4500 | 7500 |  |
| COc1ccc(Cl)cc1NC(=O)N1CCN(CCc2ccccc2)CC1 | > 30000 | > 30000 |  |
| O=C(c1cc(C(F)(F)F)[nH]n1)N1CCC(c2ccccc2C(F)(F)F)CC1 | 240 | 120 |  |
| O=C(c1cnccc1C(F)(F)F)N1CCC(c2ccccc2C(F)(F)F)CC1 | 130 | 76 |  |

| Compound | IC50 [1] [nM] | IC50 [2] [nM] | other results |
| --- | --- | --- | --- |
| FC(F)(F)c1cccc(CN2CCN(c3ncccc3C(F)(F)F)CC2)c1 | > 30000 | > 10000 |  |
| COc1ccc(Cl)cc1NC(=O)N1CCCN(c2ncccc2C(F)(F)F)CC1 | 480 | 670 |  |
| FC(F)(F)c1cccc(CN2CCN(c3ncnc4sc5c(c34)CCC5)CC2)c1 | 600 | 24 |  |
| O=C(O)c1ccccc1NC(=O)N1CCN(c2ncccc2C(F)(F)F)CC1 |  |  | remaining at 0.5 h [3]: 51%; clearance [4]: 1.67 mL/min/kg; AUC [5]: 5080 ng·h/mL; MRT [6]: 2.6 h; Vd [7]: 0.26 L/kg; Cmax [13]: 1000 ng/mL; AUC [14]: 3650 ng·h/mL; MRT [15]: 3.2 h; Drug metabolism (Liver microsome [20]): metabolite_notdetected; Drug metabolism (Liver microsome [21]): metabolite_notdetected |
| COc1ccc(Cl)cc1NC(=O)N1CCN(c2ncccc2C(F)(F)F)CC1C (stereo unspecified) | 450 | 350 |  |
| COC(=O)c1cccc(C(=O)N2CCC(c3ccccc3C(F)(F)F)CC2)c1 | 830 | 600 |  |
| COc1ccc(Cl)cc1NC(=O)N1CCN(c2ncccc2C(F)(F)F)CC1 | 230 | 130 | remaining at 0.5 h [3]: 1%; Drug metabolism (Liver microsome [16]): metabolite_detected; Drug metabolism (Liver microsome [20]): metabolite_detected; Drug metabolism (Liver microsome [21]): metabolite_detected; Drug metabolism (Liver microsome [17]): metabolite_detected |
| COc1ccc(Cl)cc1NC(=O)N1CCN(c2ccccc2Cl)CC1 | 890 | 1300 |  |
| O=C(c1cccc(C(F)(F)F)c1)N1CCC(c2ccccc2C(F)(F)F)CC1 | 920 | 2700 |  |
| COc1ccc(Cl)cc1NC(=O)N1CCC(c2ccccc2C(F)(F)F)CC1 | 160 | 23 |  |
| COc1ccc(Cl)cc1NC(=O)N1CCN(c2ccccc2C(F)(F)F)CC1 | 70 | 17 |  |
| COc1ccc(Cl)cc1NC(=O)N1CCN(c2ccccc2Cl)C(=O)C1 | 3600 |  |  |
| O=C(c1nccs1)N1CCC(c2ccccc2C(F)(F)F)CC1 | 51 | 3 |  |
| COc1ccc(Cl)cc1NC(=O)N1CCN(c2ncccc2Cl)CC1 | 2500 |  |  |
| COc1ccc(Cl)cc1NC(=O)C1CCN(c2ncccc2C(F)(F)F)CC1 | 1100 |  |  |
| Cn1cncc1C(=O)N1CCC(c2ccccc2C(F)(F)F)CC1 | 840 | 550 |  |
| COc1ccc(Cl)cc1NC(=O)N1CCN(c2ncnc3sc4c(c23)CCC4)CC1 | 360 | 600 |  |

From ChEMBL document CHEMBL3286122, “Structure-assisted discovery of the first non-retinoid ligands for Retinol-Binding Protein 4” (Bioorg Med Chem Lett, 2014)
